Experimental data as given in PMC5218480 (PLoS ONE, 2017).

Tested on: MV-4-11 cells
Assay: Gene expression microarray analysis (Affymetrix PrimeView) and GSEA
Type: cell-based, human
Parameters: RFU PODN (11730768_x_at) / Fold change /veh PODN (11730768_x_at) / RFU LINC00158 (11744669_a_at) / Fold change /veh LINC00158 (11744669_a_at) / RFU DUSP10 (11751237_a_at) / Fold change /veh DUSP10 (11751237_a_at) / RFU ID3 (11757404_x_at) / Fold change /veh ID3 (11757404_x_at) / RFU PLEKHG5 (11737974_s_at) / Fold change /veh PLEKHG5 (11737974_s_at) / RFU LRRC4B (11730491_at) / Fold change /veh LRRC4B (11730491_at) / RFU GIMAP4 (11747438_a_at) / Fold change /veh GIMAP4 (11747438_a_at) / RFU KRT8 (11758183_x_at) / Fold change /veh KRT8 (11758183_x_at) / RFU CNN1 (11734310_a_at) / Fold change /veh CNN1 (11734310_a_at) / RFU VPS37D (11726825_at) / Fold change /veh VPS37D (11726825_at) / RFU C10orf10 (11716522_x_at) / Fold change /veh C10orf10 (11716522_x_at) / RFU KIR2DL2 /// KIR2DL4 /// KIR2DL5A /// KIR2DL5B /// KIR2DS1 /// KIR2DS2 /// KIR2DS3 /// KIR2DS4 /// KIR3DL3 /// KIR3DL3 /// KIR3DS1 (11738374_at) / Fold change /veh KIR2DL2 /// KIR2DL4 /// KIR2DL5A /// KIR2DL5B /// KIR2DS1 /// KIR2DS2 /// KIR2DS3 /// KIR2DS4 /// KIR3DL3 /// KIR3DL3 /// KIR3DS1 (11738374_at) / RFU C1QL1 (11718748_at) / Fold change /veh C1QL1 (11718748_at) / RFU TMPRSS4 (11747572_a_at) / Fold change /veh TMPRSS4 (11747572_a_at) / RFU HAMP (11756126_x_at) / Fold change /veh HAMP (11756126_x_at) / RFU RNFT2 (11725882_a_at) / Fold change /veh RNFT2 (11725882_a_at) / RFU NR4A2 (11747474_a_at) / Fold change /veh NR4A2 (11747474_a_at) / RFU ABCC12 (11746883_a_at) / Fold change /veh ABCC12 (11746883_a_at) / RFU TMEM136 (11760407_x_at) / Fold change /veh TMEM136 (11760407_x_at) / RFU CLDN22 /// WWC2 (11732394_at) / Fold change /veh CLDN22 /// WWC2 (11732394_at) / RFU HLA-DPB1 (11760878_x_at) / Fold change /veh HLA-DPB1 (11760878_x_at) / RFU SPINT1 (11716480_a_at) / Fold change /veh SPINT1 (11716480_a_at) / RFU GAP43 (11754022_s_at) / Fold change /veh GAP43 (11754022_s_at) / RFU A4GNT (11735810_at) / Fold change /veh A4GNT (11735810_at) / RFU PRB3 (11715151_x_at) / Fold change /veh PRB3 (11715151_x_at) / RFU TUBB4B (11761932_at) / Fold change /veh TUBB4B (11761932_at) / RFU CAPN14 (11732068_a_at) / Fold change /veh CAPN14 (11732068_a_at) / RFU TMCC2 (11721928_a_at) / Fold change /veh TMCC2 (11721928_a_at) / RFU IRGQ (11745062_a_at) / Fold change /veh IRGQ (11745062_a_at) / RFU FAM174B (11720279_a_at) / Fold change /veh FAM174B (11720279_a_at) / RFU TMPRSS4 (11748680_a_at) / Fold change /veh TMPRSS4 (11748680_a_at) / RFU FAM212B (11763350_a_at) / Fold change /veh FAM212B (11763350_a_at) / RFU PLEKHG5 (11743358_a_at) / Fold change /veh PLEKHG5 (11743358_a_at) / RFU ZSCAN30 (11745921_a_at) / Fold change /veh ZSCAN30 (11745921_a_at) / RFU CMKLR1 (11741424_a_at) / Fold change /veh CMKLR1 (11741424_a_at) / RFU LOC101060620 /// MAPK8IP1 (11723275_at) / Fold change /veh LOC101060620 /// MAPK8IP1 (11723275_at) / RFU SPTSSB (11747773_x_at) / Fold change /veh SPTSSB (11747773_x_at) / RFU PRSS12 (11739890_at) / Fold change /veh PRSS12 (11739890_at) / RFU BIN1 (11741810_x_at) / Fold change /veh BIN1 (11741810_x_at) / RFU WNT11 (11732464_a_at) / Fold change /veh WNT11 (11732464_a_at) / RFU C10orf10 (11716521_a_at) / Fold change /veh C10orf10 (11716521_a_at) / RFU C5orf56 (11738089_at) / Fold change /veh C5orf56 (11738089_at) / RFU CYB561 (11721691_x_at) / Fold change /veh CYB561 (11721691_x_at) / RFU ANKRD19P (11752326_a_at) / Fold change /veh ANKRD19P (11752326_a_at) / RFU OR2T12 /// OR2T33 /// OR2T8 (11738714_s_at) / Fold change /veh OR2T12 /// OR2T33 /// OR2T8 (11738714_s_at) / RFU VCAN (11748164_a_at) / Fold change /veh VCAN (11748164_a_at) / RFU JSRP1 (11732532_at) / Fold change /veh JSRP1 (11732532_at) / RFU KRTAP10-11 (11738290_x_at) / Fold change /veh KRTAP10-11 (11738290_x_at) / RFU MYO3A (11730013_a_at) / Fold change /veh MYO3A (11730013_a_at) / RFU EBF3 (11725865_a_at) / Fold change /veh EBF3 (11725865_a_at) / RFU CAMK2N1 (11719241_x_at) / Fold change /veh CAMK2N1 (11719241_x_at) / RFU C5orf56 (11738088_a_at) / Fold change /veh C5orf56 (11738088_a_at) / RFU OLFML3 (11715873_a_at) / Fold change /veh OLFML3 (11715873_a_at) / RFU LOC100653217 /// NTM (11731650_a_at) / Fold change /veh LOC100653217 /// NTM (11731650_a_at) / RFU MAPK11 (11762145_a_at) / Fold change /veh MAPK11 (11762145_a_at) / RFU FIZ1 (11724087_x_at) / Fold change /veh FIZ1 (11724087_x_at) / RFU OASL (11726364_x_at) / Fold change /veh OASL (11726364_x_at) / RFU SOX15 (11748057_x_at) / Fold change /veh SOX15 (11748057_x_at) / RFU CD79A (11719716_a_at) / Fold change /veh CD79A (11719716_a_at) / RFU HIST1H1D (11736915_at) / Fold change /veh HIST1H1D (11736915_at) / RFU CASKIN2 (11723855_a_at) / Fold change /veh CASKIN2 (11723855_a_at) / RFU LOC730098 (11760151_x_at) / Fold change /veh LOC730098 (11760151_x_at) / RFU OR4N2 (11742367_at) / Fold change /veh OR4N2 (11742367_at) / RFU PRRT2 (11749266_a_at) / Fold change /veh PRRT2 (11749266_a_at) / RFU SNX32 (11753110_a_at) / Fold change /veh SNX32 (11753110_a_at) / RFU CDHR5 (11726645_a_at) / Fold change /veh CDHR5 (11726645_a_at) / RFU RCAN1 (11760418_a_at) / Fold change /veh RCAN1 (11760418_a_at) / RFU FAM167A (11723789_a_at) / Fold change /veh FAM167A (11723789_a_at) / RFU FAM26E (11764081_at) / Fold change /veh FAM26E (11764081_at) / RFU ISYNA1 (11749810_s_at) / Fold change /veh ISYNA1 (11749810_s_at) / RFU ACY1 (11761880_at) / Fold change /veh ACY1 (11761880_at) / RFU 11764098_at / Fold change /veh 11764098_at / RFU SAMD14 (11745864_x_at) / Fold change /veh SAMD14 (11745864_x_at) / RFU NPB (11741838_a_at) / Fold change /veh NPB (11741838_a_at) / RFU TMPRSS6 (11731388_a_at) / Fold change /veh TMPRSS6 (11731388_a_at) / RFU KRTAP10-2 (11738614_at) / Fold change /veh KRTAP10-2 (11738614_at) / RFU ARHGAP8 /// PRR5-ARHGAP8 (11727945_x_at) / Fold change /veh ARHGAP8 /// PRR5-ARHGAP8 (11727945_x_at) / RFU KRTAP5-7 /// NADSYN1 (11734609_at) / Fold change /veh KRTAP5-7 /// NADSYN1 (11734609_at) / RFU RASL12 (11751679_a_at) / Fold change /veh RASL12 (11751679_a_at) / RFU CDKN2B (11736163_a_at) / Fold change /veh CDKN2B (11736163_a_at) / RFU PRF1 (11729649_at) / Fold change /veh PRF1 (11729649_at) / RFU, ZNF638 /// ZNF638-IT1 / Fold change vs veh, ZNF638 /// ZNF638-IT1 / RFU, PANK3 / Fold change vs veh, PANK3 / RFU, SH3YL1 / Fold change vs veh, SH3YL1 / RFU, ZEB2 / Fold change vs veh, ZEB2 / RFU, NRIP1 / Fold change vs veh, NRIP1 / RFU, PTTG1IP / Fold change vs veh, PTTG1IP / RFU, CAPN2 / Fold change vs veh, CAPN2 / RFU, MED14 / Fold change vs veh, MED14 / RFU, SNORA58 / Fold change vs veh, SNORA58 / RFU, C1orf63 / Fold change vs veh, C1orf63 / RFU, LRRFIP1 / Fold change vs veh, LRRFIP1 / RFU, NDUFAF7 / Fold change vs veh, NDUFAF7 / RFU, SLC12A2 / Fold change vs veh, SLC12A2 / RFU, IBTK / Fold change vs veh, IBTK / RFU, ESF1 / Fold change vs veh, ESF1 / Fold change vs veh, TMEM50B / RFU, TAOK1 / Fold change vs veh, TAOK1 / RFU, ACBD3 / Fold change vs veh, ACBD3 / RFU, TMA16 / Fold change vs veh, TMA16 / RFU, RWDD3 / Fold change vs veh, RWDD3 / RFU, BCAT1 / Fold change vs veh, BCAT1 / RFU, EDEM3 / Fold change vs veh, EDEM3 / RFU, TMEM33 / Fold change vs veh, TMEM33 / RFU, WDR75 / Fold change vs veh, WDR75 / RFU, AHCTF1 / Fold change vs veh, AHCTF1 / RFU, TFRC / Fold change vs veh, TFRC / RFU, ZDHHC17 / Fold change vs veh, ZDHHC17 / RFU, NOM1 / Fold change vs veh, NOM1 / RFU, ARL8B / Fold change vs veh, ARL8B / RFU, ZBTB11 / Fold change vs veh, ZBTB11 / RFU, TAMM41 / Fold change vs veh, TAMM41 / RFU, KIAA1704 /// LOC100996395 / Fold change vs veh, KIAA1704 /// LOC100996395 / RFU, ING1 / Fold change vs veh, ING1 / RFU, TRMT61B / Fold change vs veh, TRMT61B / RFU, FUBP3 / Fold change vs veh, FUBP3 / RFU, TP53 / Fold change vs veh, TP53 / RFU, TNKS2 / Fold change vs veh, TNKS2 / RFU, ZFP14 / Fold change vs veh, ZFP14 / RFU, ACTR2 / Fold change vs veh, ACTR2 / RFU, PPP3R1 / Fold change vs veh, PPP3R1 / RFU, PIK3R1 / Fold change vs veh, PIK3R1 / RFU, HNRNPA1 / Fold change vs veh, HNRNPA1 / RFU, RNF170 / Fold change vs veh, RNF170 / RFU, ZNF28 / Fold change vs veh, ZNF28 / RFU, RNGTT / Fold change vs veh, RNGTT / RFU, OGT / Fold change vs veh, OGT / RFU, BRD1 / Fold change vs veh, BRD1 / RFU, MARS / Fold change vs veh, MARS / RFU, ZNF655 / Fold change vs veh, ZNF655 / RFU, FAHD1 / Fold change vs veh, FAHD1 / RFU, BDP1 / Fold change vs veh, BDP1 / RFU, LRRCC1 / Fold change vs veh, LRRCC1 / RFU, ARID1A / Fold change vs veh, ARID1A / RFU, ZNF146 / Fold change vs veh, ZNF146 / RFU, ZNF330 / Fold change vs veh, ZNF330 / RFU, GPN3 / Fold change vs veh, GPN3 / RFU, C9orf123 / Fold change vs veh, C9orf123 / RFU, N4BP2L2 / Fold change vs veh, N4BP2L2 / RFU, ARFIP1 / Fold change vs veh, ARFIP1 / RFU, FAM179B / Fold change vs veh, FAM179B / RFU, BCL10 / Fold change vs veh, BCL10 / RFU, UHRF1BP1L / Fold change vs veh, UHRF1BP1L / RFU, BET1 / Fold change vs veh, BET1 / RFU, CNOT2 / Fold change vs veh, CNOT2 / RFU, ZNF268 / Fold change vs veh, ZNF268 / Fold change vs veh, ZNF507 / RFU, DGCR2 / Fold change vs veh, DGCR2 / RFU, WDSUB1 / Fold change vs veh, WDSUB1 / Fold change vs veh, HSP90B1 /// MIR3652 / RFU, ADSS / Fold change vs veh, ADSS / RFU, GK / Fold change vs veh, GK / RFU, ZNF148 / Fold change vs veh, ZNF148 / RFU, TAF9 / Fold change vs veh, TAF9 / RFU, SLC1A5 / Fold change vs veh, SLC1A5 / RFU, SLMO2 / Fold change vs veh, SLMO2 / RFU, ABCC4 / Fold change vs veh, ABCC4 / RFU, LOC101060439 /// RAP1B / Fold change vs veh, LOC101060439 /// RAP1B / RFU, RFX7 / Fold change vs veh, RFX7 / RFU, GTPBP10 / Fold change vs veh, GTPBP10 / RFU, CNEP1R1 / Fold change vs veh, CNEP1R1 / RFU, BIVM-ERCC5 /// ERCC5 / Fold change vs veh, BIVM-ERCC5 /// ERCC5 / RFU, ILF3 / Fold change vs veh, ILF3 / RFU 11762660_at / Fold change /veh 11762660_at / RFU VCAN (11757783_s_at) / Fold change /veh VCAN (11757783_s_at) / RFU DDX43 (11728927_at) / Fold change /veh DDX43 (11728927_at) / RFU KRT8 (11758188_x_at) / Fold change /veh KRT8 (11758188_x_at) / RFU NKD1 (11759106_at) / Fold change /veh NKD1 (11759106_at) / RFU SRD5A1 (11742802_a_at) / Fold change /veh SRD5A1 (11742802_a_at) / RFU TPSAB1 /// TPSB2 (11721975_s_at) / Fold change /veh TPSAB1 /// TPSB2 (11721975_s_at) / RFU GSTM3 (11746129_a_at) / Fold change /veh GSTM3 (11746129_a_at) / RFU IL23R (11737362_x_at) / Fold change /veh IL23R (11737362_x_at) / RFU TMEM51 (11727254_a_at) / Fold change /veh TMEM51 (11727254_a_at) / RFU PIWIL2 (11732686_x_at) / Fold change /veh PIWIL2 (11732686_x_at) / RFU ORM1 (11744905_x_at) / Fold change /veh ORM1 (11744905_x_at) / RFU CCDC152 (11743942_at) / Fold change /veh CCDC152 (11743942_at) / RFU ECM1 (11717891_a_at) / Fold change /veh ECM1 (11717891_a_at) / RFU IL23R (11748794_a_at) / Fold change /veh IL23R (11748794_a_at) / RFU TNFAIP8L3 (11732012_x_at) / Fold change /veh TNFAIP8L3 (11732012_x_at) / RFU MBOAT4 (11741988_at) / Fold change /veh MBOAT4 (11741988_at) / RFU 11764193_at / Fold change /veh 11764193_at / RFU TMEM53 (11763286_at) / Fold change /veh TMEM53 (11763286_at) / RFU MAGEB2 (11727129_at) / Fold change /veh MAGEB2 (11727129_at) / RFU TMEM200A (11744735_a_at) / Fold change /veh TMEM200A (11744735_a_at) / RFU CCDC152 (11751479_a_at) / Fold change /veh CCDC152 (11751479_a_at) / RFU FAM211A (11726209_a_at) / Fold change /veh FAM211A (11726209_a_at) / RFU RGS16 (11746705_a_at) / Fold change /veh RGS16 (11746705_a_at) / RFU VCAN (11755009_s_at) / Fold change /veh VCAN (11755009_s_at) / RFU RHOB (11743442_s_at) / Fold change /veh RHOB (11743442_s_at) / RFU RGS16 (11720943_a_at) / Fold change /veh RGS16 (11720943_a_at) / RFU RGS16 (11720944_at) / Fold change /veh RGS16 (11720944_at) / RFU, VPS4B / Fold change vs veh, VPS4B / RFU, CREB1 / Fold change vs veh, CREB1 / RFU, DNAJC13 / Fold change vs veh, DNAJC13 / RFU, GNAQ / Fold change vs veh, GNAQ / RFU, CDK5R1 / Fold change vs veh, CDK5R1 / RFU, ZRANB3 / Fold change vs veh, ZRANB3 / RFU, CUL4A / Fold change vs veh, CUL4A / RFU, CCNY / Fold change vs veh, CCNY / RFU, UFL1 / Fold change vs veh, UFL1 / RFU, COG3 / Fold change vs veh, COG3 / RFU, DIAPH2 / Fold change vs veh, DIAPH2 / RFU, SKA2 / Fold change vs veh, SKA2 / RFU, AFF3 / Fold change vs veh, AFF3 / RFU, LMF1 / Fold change vs veh, LMF1 / RFU, IPO11 / Fold change vs veh, IPO11 / RFU, DFFB / Fold change vs veh, DFFB / RFU, FOXP1 / Fold change vs veh, FOXP1 / RFU, CARD8 / Fold change vs veh, CARD8 / RFU, STRN3 / Fold change vs veh, STRN3 / RFU, ADK / Fold change vs veh, ADK / RFU, RASSF2 / Fold change vs veh, RASSF2 / RFU, WIPF1 / Fold change vs veh, WIPF1 / RFU, LARP1B / Fold change vs veh, LARP1B / RFU, RASA1 / Fold change vs veh, RASA1 / RFU, RB1 / Fold change vs veh, RB1 / RFU, PPFIA1 / Fold change vs veh, PPFIA1 / RFU, MAT2A / Fold change vs veh, MAT2A / RFU, CCT5 / Fold change vs veh, CCT5 / RFU, WDR92 / Fold change vs veh, WDR92 / RFU, CUX1 / Fold change vs veh, CUX1 / RFU, TTC7A / Fold change vs veh, TTC7A / RFU, TMEM135 / Fold change vs veh, TMEM135 / RFU, DEPTOR / Fold change vs veh, DEPTOR / RFU, CPM / Fold change vs veh, CPM / RFU, DNAJB6 / Fold change vs veh, DNAJB6 / RFU, CACNA2D3 / Fold change vs veh, CACNA2D3 / RFU, DTX4 / Fold change vs veh, DTX4 / RFU, TFCP2 / Fold change vs veh, TFCP2 / RFU, GMCL1 /// GMCL1P1 / Fold change vs veh, GMCL1 /// GMCL1P1 / RFU, AEBP2 / Fold change vs veh, AEBP2 / RFU, SNHG1 /// SNORD22 /// SNORD25 /// SNORD26 /// SNORD27 /// SNORD28 /// SNORD29 /// SNORD31 / Fold change vs veh, SNHG1 /// SNORD22 /// SNORD25 /// SNORD26 /// SNORD27 /// SNORD28 /// SNORD29 /// SNORD31 / Fold change (Aza/veh), C12orf56 (ProbeSet 11735607_a_at) / Fold change (ACY-1035/veh), C12orf56 (ProbeSet 11735607_a_at) / Fold change (Aza/veh), FGFR1OP (ProbeSet 11751329_s_at) / Fold change (ACY-1035/veh), FGFR1OP (ProbeSet 11751329_s_at) / Fold change (Aza/veh), VPS36 (ProbeSet 11739960_a_at) / Fold change (ACY-1035/veh), VPS36 (ProbeSet 11739960_a_at) / RFU SYPL1 (11715823_x_at) / Fold change /veh SYPL1 (11715823_x_at) / RFU IGFBP7 (11715501_s_at) / Fold change /veh IGFBP7 (11715501_s_at) / RFU REEP3 (11722064_at) / Fold change /veh REEP3 (11722064_at) / RFU IGLL1 (11728026_x_at) / Fold change /veh IGLL1 (11728026_x_at): dose or concentration left out as unconfirmed
Settings: ProbeSet 11716865_a_at; LIST B

Nc1ccc(-c2cccs2)cc1NC(=O)c1ccc2c(c1)cc(C1CC1)n2CCN1CCOCC1 [ACY-1035]
RFU, SLC1A5: 252.35 RFU
